Patent US8207211B2, “Photosensitizers for targeted photodynamic therapy” (The General Hospital Corporation, priority 2005, dated 2012)

Assays:
[1] = Octanol-water distribution coefficient; format: physicochemical; conditions: 1-octanol/DI water, absorbance at 330 nm
Experimental: Each compound was dissolved in a minimum amount of DMSO: CI1 (0.9 mg in 200 μl), CI2 (5.3 mg in 200 μl), CI3 (5.4 mg in 200 μl). Ten ml of DI water and 10 ml of 1-octanol were added in each compound and vigorously shaken for 2 min. and the vials of the compounds were settled down overnight. The phases were separated and UV-spectra of each phase were analyzed. Distribution coefficient of each compound was determined using absorbance of aqueous phases and organic phases at 330 nm.

S. aureus = experiment: Photodynamic inactivation (PDI), CFU survival, 405-nm light (Example 8); format: cell-based, Staphylococcus aureus
Source text: Four microbial species were used in this study. Briefly, Escherichia coli was purchased from ATCC (ATCC #25922), Pseudomonas aeruginosa, two clinical isolates, were obtained; UCBP PA 14 from L. Rahme (Massachusetts General Hospital) and PA 767K from Kim Lewis (Tufts University), slime deficient mutant of Staphylococcus aureus was obtained from Gerald B Pier (Channing Laboratories). Yeast strain Candida albicans was purchased from ATCC (ATCC #18804). Exponential cultures obtained by reculturing stationary overnight cultures were used for all experiments. Bacteria were grown at 37° C. in BHI broth to a cell density of 10^8 cells per mL. C. albicans was grown 37° C. in YM medium to 10^7 cells/mL.
Six fullerene derivatives (NI1-3 and CI1-3) were evaluated. […] Concentration of fullerene derivatives used in the experiments varied between 1 and 100 μM.
Fullerene derivatives were mixed with microbial suspensions and incubated in the dark at room temperature for 10 minutes. Excess fullerenes were either washed out of, or left in, the suspensions before illumination. Aliquots of 100 μL were placed on three well hanging drop slides and illuminated with either a 405-nm laser (Nichia Chemical Industries) at an irradiance of 100 mW/cm^2, or with white light at room temperature. White light was 400-700 nm Gaussian distribution from LumaCare™ lamp with filtered liquid light guide, as described above.
During illumination, aliquots of 20 μL were taken to determine the colony-forming units. The contents of the wells were mixed before sampling. The aliquots were serially diluted 10-fold in PBS without Ca^++/Mg^++ to give dilutions of 10^−1−10^−6 times the original concentrations, and were streaked horizontally on square BHI agar plates. Plates were incubated at 37° C. overnight. Colonies were counted and survival fraction was determined as percent of survival compared to control. Microbial suspensions incubated with fullerene derivatives in DMSO in the absence of light and bacteria illuminated in the absence of fullerene derivatives were used as controls. […]

[2] = system: L929 murine fibroblast line; experiment: Mammalian cell toxicity, MTT viability assay after illumination; format: cell-based, mouse
Source text: Experiments to test the effect of functionalized fullerenes on mammalian cells can be performed in a suitable mammalian cell line. One such cell line is the L929 murine fibroblast line (ATCC #CCL1), a spontaneously transformed immortalized cell line established from the normal subcutaneous areolar and adipose tissue of a male C3H/An mouse (Earle, W. R., Schilling, E. L., Stark, T. H., Straus, N. P., Brown, M. F., and Shelton, E. (1943). Production of malignancy in vitro. IV. The mouse fibroblast cultures and changes seen in the living cells. J. Natl. Cancer Inst. 4, 165-212). In a suitable assay, these cells were cultured in Dulbecco's modified Eagle's medium (Sigma) at 37° C. in a humidified atmosphere containing 5% CO2. The medium is preferably modified by using 4 mM L-glutamine (containing 1.5 g/l sodium bicarbonate and 4.5 g/l glucose), 10% fetal bovine serum (FBS), 100 U/ml penicillin, and […] streptomycin. Cells were plated in 96-well cell culture plates, at a density of about 300 cells/well, and are allowed to attach for 24 hr.
Fullerenes and other PS, e.g., TBO, were added at a concentration of about 10 μM in 200 μl complete medium per well. After 10 min, fresh medium is added, and the cultures were illuminated with white light (for fullerenes) or with red light (for TBO). At the completion of the illumination period, cells were returned to the incubator for 24 hr. Cell viability can be determined, for example, by using the MTT-microculture tetrazolium assay, a method of assessing cellular response to PDT (Merlin, J. L., Azzi, S., Lignon, D., Ramacci, C., Zeghari, N., and Guillemin, F. (1992). MTT assays allow quick and reliable measurement of the response of human tumour cells to photodynamic therapy. Eur. J. Cancer 28A, 1452-1458. This assay involves the reduction of a colorless substrate, i.e., 3-[4,5-Dimethylthiazol-2-yl]-diphenyltetrazolium bromide (Sigma, St. Louis, […].) to an insoluble dark-blue formazan product which is formed in proportion to the amount of succinate dehydrogenase activity in the mitochondria of living cells. After incubation with MTT for periods ranging from 4 to 8 hr, the medium was aspirated from each well, and […] DMSO is added. The absorbance at 570 nm was read by a microplate reader, e.g., a Spectra Max™ 340 PC (Molecular Devices, Sunnyvale, Calif.). The fraction of cells surviving was calculated by dividing the mean absorbances of formazan produced from PDT-treated cells by the mean absorbances from dark controls incubated with PS and kept at room temperature for periods of time equal to the irradiation times.

In the case of `C[N+]1(C)Cc2c(c3c4ccc5c6ccc7c8ccc9c%10c%11c%12c(c2c2c3c3c4c5c4c6c7c5c8c9c%11c6c(c%122)c3c4c56)C2C[N+](C)(C)CC%102)C1` (stereo not shown) [CI2], the “Kow (octanol-water partition constant)” value [1] is reported as 1.28, the LogKow [1] is reported as 0.11 and the “PDI of S. aureus” value (S. aureus; 100 μM, 10 min, 405 nm light 0-200 J/cm^2) is reported as “most potent”. For the same compound, the “killing of S. aureus” value (S. aureus; 1-μM, 8 J/cm^2, 405 nm light) was 6 logs, the “potency relative to the other fullerene derivatives” value (S. aureus; S. aureus, 1 μM and 8 J/cm^2 versus 100 μM screen) was “approximately 1000 times” and the “toxicity to L929 mammalian cells at fluences used for PDI of pathogens” value ([2]; 10 μM, 10 min, white light up to 50 J/cm^2) was “not killed”. For the same compound, the “toxicity to mammalian cells at high fluences relative to TBO” value ([2]; L929, high fluences) was “considerably less toxic”.
